In PubChem BioAssay (NCI):
“And” between values parts separate entries of the source, which are not always exact repeats. Equal values may be shown once.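 Five concentrations, 48 hours, 96-well plates. GI50: concentration for 50% inhibition of growth. TGI: concentration producing complete growth inhibition.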

How the values were obtained:
Test in all cases: inhibition of tumour cell growth, NCI panel, 48 h
[1] = system: NCI-H522 lung
[2] = system: HCC-2998 colon
[3] = system: MALME-3M melanoma
[4] = system: UACC-257 melanoma
[5] = system: EKVX NSCLC
[6] = system: K-562 leukemia
[7] = system: IGROV1 ovarian
[8] = system: COLO 205 colon
[9] = system: SF-295 CNS
[10] = system: UO-31 renal

SMILES	TGI [1]	TGI [2]	TGI [3]	TGI [4]	TGI [5]	TGI [6]	TGI [7]	TGI [8]	TGI [9]	GI50 [1]	GI50 [2]	GI50 [3]	GI50 [4]	GI50 [5]	GI50 [6]	GI50 [7]	GI50 [8]	GI50 [10]	TGI [10]	GI50 [9]
O=c1oc2c(Br)c(O)c(Br)cc2c2ccccc12	51.3 µM	72.4 µM	64.8 µM	61.7 µM	67.4 µM	50.9 µM	> 100 µM	> 100 µM	> 100 µM											
Nc1ccn(C2OC(CO[P+](=O)OC3C(CO[P+](=O)OC4C(CO[P+](=O)OC5C(CO[P+](=O)OC6C(CO[P+](=O)OC7C(CO[P+](=O)OC8C(CO[P+](=O)OC9C(CO[P+](=O)OC%10C(CO[P+](=O)OC%11C(CO)OC(n%12ccc(N)nc%12=O)C%11(F)F)OC(n%11ccc(N)nc%11=O)C%10(F)F)OC(n%10ccc(N)nc%10=O)C9(F)F)OC(n9ccc(N)nc9=O)C8(F)F)OC(n8ccc(N)nc8=O)C7(F)F)OC(n7ccc(N)nc7=O)C6(F)F)OC(n6ccc(N)nc6=O)C5(F)F)OC(n5ccc(N)nc5=O)C4(F)F)OC(n4ccc(N)nc4=O)C3(F)F)C(O)C2(F)F)c(=O)n1 (centres undefined)	> 100 µM	> 100 µM	> 100 µM		> 100 µM	> 100 µM	> 100 µM	> 100 µM	> 100 µM	0.224 µM	0.339 µM	50.9 µM	0.859 µM	> 100 µM	2.71 µM	> 100 µM	0.369 µM			
Cn1c(=O)c(Sc2ccccc2F)cc2cnc(NC3CCOCC3)nc21	> 25 µM	> 25 µM	> 25 µM	> 25 µM		> 25 µM	> 25 µM	> 25 µM	> 25 µM	> 25 µM	> 25 µM	> 25 µM	> 25 µM		> 25 µM	> 25 µM	> 25 µM	> 25 µM	> 25 µM	> 25 µM
C=CC[Se]C(=O)c1ccccc1OC(C)=O	4.62 µM	2.88 µM	3.38 µM	5 µM		> 100 µM	3.11 µM	5.01 µM	1.32 µM	1.93 µM	1.36 µM	1.66 µM	2.09 µM		3.1 µM	1.7 µM	2.25 µM	1.48 µM	2.81 µM	0.332 µM
O=C1OCC2=C1C(c1ccccc1)c1cc3c(cc1N2CCO)CCC3 (centres undefined)	0.119 µM	0.941 µM	> 25 µM	> 25 µM	> 25 µM	> 25 µM	0.774 µM	0.331 µM		0.0284 µM	0.115 µM	0.0609 µM	0.0862 µM	1.16 µM	0.0908 µM	0.0799 µM	0.0854 µM	0.117 µM	> 20.1 µM	0.0677 µM
CCOC(=O)NC(=O)c1cn(CCCCCCCCCCC(=O)N2CCN(CCn3cc(C(=O)NC(=O)OCC)c(=O)[nH]c3=O)CC2)c(=O)[nH]c1=O		> 100 µM		> 100 µM	> 100 µM	> 100 µM	> 100 µM	> 100 µM	> 100 µM											
CCc1ccc(/C(C#N)=C/C=C/c2ccccc2)cc1	14.7 µM	68.3 µM	> 100 µM	> 100 µM		> 100 µM	> 100 µM	5.91 µM	10.5 µM	2.04 µM	6.65 µM	6.05 µM	> 83.5 µM		0.882 µM	7.55 µM	1.83 µM	19.2 µM	> 100 µM	2.51 µM
CCCCC(SC(=S)N(CC)CC)C(=O)Nc1nc(CC(=O)OCC)cs1 (centres undefined)	> 100 µM	> 100 µM	> 100 µM	> 100 µM	> 100 µM	> 100 µM	> 100 µM		> 100 µM	13.3 µM	59.3 µM	24.8 µM	35.6 µM	45.7 µM	25 µM	37.4 µM		47.6 µM	> 100 µM	38.6 µM
CCC[CH2][Sn]([CH2]CCC)([O]C(=O)c1cc(OC)c(OC)c(OC)c1)[O]C(=O)c1cc(OC)c(OC)c(OC)c1	0.348 µM		2.17 µM	2.47 µM	4.69 µM	1.99 µM	2.73 µM	2.59 µM	3.19 µM	0.191 µM		0.946 µM	1.09 µM	1.95 µM	0.29 µM	1.32 µM	1.22 µM	1.33 µM	2.61 µM	1.6 µM
Clc1ccc(N/N=C/c2ccccn2)nc1	37.4 µM	> 100 µM		> 23.6 µM	> 100 µM	> 100 µM	> 100 µM	18.6 µM	> 100 µM	0.323 µM	0.422 µM		0.636 µM	0.352 µM	0.383 µM	0.441 µM	0.342 µM	0.303 µM	1.57 µM	0.452 µM
O=C1C(CN(Cc2ccccc2)Cc2ccccc2)CCCC1CN(Cc1ccccc1)Cc1ccccc1 (centres undefined)		> 100 µM	14.3 µM and > 83 µM	49.1 µM and > 100 µM	59.9 µM and > 100 µM	> 100 µM	> 100 µM		> 100 µM			8.03 µM and 36.3 µM	27.9 µM and > 100 µM	36.8 µM and > 100 µM	54.3 µM and > 86.3 µM			16.9 µM and 47.6 µM	27.3 µM and > 100 µM	
Cc1c(NC(=O)CCCl)c(=O)oc2c(C)c3occc(=O)c3cc12		> 100 µM	> 100 µM	> 100 µM	> 100 µM	> 100 µM	> 100 µM	> 100 µM	> 100 µM										> 100 µM	
CCCCCCCCC(=O)CCCCCCCCC(=O)O	85 µM		> 100 µM	> 100 µM	93.3 µM	46.6 µM	36.4 µM	59.8 µM	> 100 µM										84.7 µM	
NC(=O)c1ncn(C2OC(CO)C(O)C2O)n1 (centres undefined)	> 100 µM	> 100 µM	> 100 µM	> 100 µM	> 100 µM	> 100 µM	> 100 µM	> 100 µM		> 100 µM	> 100 µM	> 100 µM	> 100 µM	70.2 µM	51.9 µM	> 100 µM	55.2 µM	> 100 µM	> 100 µM	
C[CH2][Sn]1([CH2]C)[O]C2C(O)OC(CO)C(O)C2[O]1 (centres undefined)	22.2 µM		30.2 µM	31.8 µM		41.4 µM	> 100 µM	> 100 µM	> 100 µM	3.95 µM		14 µM	14.4 µM		16.7 µM	38.7 µM	35.2 µM	68.7 µM	> 100 µM	> 100 µM
